In assay [1] the target is Multidrug resistance protein 1a (Rattus norvegicus) (UniProt Q6PSM0). Description: TP_TRANSPORTER: Western blot, primary hepatocytes. In kind it is functional, cell-based. The conditions noted are these: Hepatocyte. In general terms: Immunoblotting shows a protein as a band on a membrane.
The target is the same in assay [2]. The assay can be described thus: TP_TRANSPORTER: Northern blot from primary hepatocytes. In kind it is functional, cell-based. The note with it: Hepatocyte.

Each structure is given as a SMILES string.

Sequence of Multidrug resistance protein 1a (Rattus norvegicus) (Q6PSM0 as listed by the source): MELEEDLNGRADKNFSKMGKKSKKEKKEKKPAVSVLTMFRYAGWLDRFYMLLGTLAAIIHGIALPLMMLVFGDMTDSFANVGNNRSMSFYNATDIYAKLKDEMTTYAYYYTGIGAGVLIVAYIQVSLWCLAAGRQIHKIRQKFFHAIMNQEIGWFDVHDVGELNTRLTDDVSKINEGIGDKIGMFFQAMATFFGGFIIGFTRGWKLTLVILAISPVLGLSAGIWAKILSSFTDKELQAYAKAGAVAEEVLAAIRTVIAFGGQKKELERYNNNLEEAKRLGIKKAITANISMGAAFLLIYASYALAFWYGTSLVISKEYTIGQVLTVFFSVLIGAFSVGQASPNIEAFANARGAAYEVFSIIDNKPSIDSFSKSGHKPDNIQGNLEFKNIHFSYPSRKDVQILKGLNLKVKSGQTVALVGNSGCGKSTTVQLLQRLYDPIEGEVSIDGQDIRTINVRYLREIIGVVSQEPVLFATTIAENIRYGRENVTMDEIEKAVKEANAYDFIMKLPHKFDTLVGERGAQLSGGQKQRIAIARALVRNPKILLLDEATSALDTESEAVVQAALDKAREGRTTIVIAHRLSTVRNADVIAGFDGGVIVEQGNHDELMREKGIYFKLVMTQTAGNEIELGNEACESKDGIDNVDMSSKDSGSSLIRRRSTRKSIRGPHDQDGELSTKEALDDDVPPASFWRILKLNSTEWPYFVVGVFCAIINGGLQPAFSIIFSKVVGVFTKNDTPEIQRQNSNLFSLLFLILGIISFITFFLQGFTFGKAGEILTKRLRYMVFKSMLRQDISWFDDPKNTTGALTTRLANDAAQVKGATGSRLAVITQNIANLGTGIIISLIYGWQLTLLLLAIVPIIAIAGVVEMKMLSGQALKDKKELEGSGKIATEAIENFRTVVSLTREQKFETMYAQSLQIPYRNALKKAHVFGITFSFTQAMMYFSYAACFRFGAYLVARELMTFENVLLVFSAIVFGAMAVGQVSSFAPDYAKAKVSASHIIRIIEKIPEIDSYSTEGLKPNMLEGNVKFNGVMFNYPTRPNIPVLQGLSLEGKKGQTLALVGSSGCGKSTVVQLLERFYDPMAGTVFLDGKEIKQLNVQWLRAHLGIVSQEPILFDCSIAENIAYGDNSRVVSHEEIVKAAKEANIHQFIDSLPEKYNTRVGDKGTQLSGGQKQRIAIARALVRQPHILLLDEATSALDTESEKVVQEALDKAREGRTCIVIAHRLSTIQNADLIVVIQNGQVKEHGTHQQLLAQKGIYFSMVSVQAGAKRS

Consider `C[C@@H]1C[C@H]2[C@@H]3CCC4=CC(=O)C=C[C@]4(C)[C@@]3(F)[C@@H](O)C[C@]2(C)[C@@]1(O)C(=O)CO`, for which the Activity result in assay [1] and in assay [2] was “inducer [Decrease]” in each case.

These data come from ChEMBL document CHEMBL2074058, “Regulation by dexamethasone of P-glycoprotein expression in cultured rat hepatocytes” (FEBS Lett, 1993).
